Measurements reported in patent US20130261077A1 (priority 2012, published 2013).

Target: T1, FimH-CRD (Escherichia coli, UniProt P08191)
T1 construct: The first 177 amino acids of the FimH protein; thrombin tag (printed as 'fusion protein with thrombin') (cleaved yes); made in house; host or cells: bacteria (pET21b plasmid)
Experiment: Competitive binding assay by fluorescence polarization, assay 2 (compounds prepared by robotics, plates frozen and thawed)
How it was run: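 Compounds at 0.4 nM–75 μM final (12 points, 3-fold steps, duplicate) compete with a 5 nM Alexa 647 mannoside probe for 60 nM FimH-CRD; 5 h room-temperature incubation in pH 7.0 Tris buffer with 2.5% DMSO, FP read-out, Kd from fitted curves. Assay 1 uses manual dilution, assay 2 robot-made frozen/thawed plates.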

T1 sequence (P08191 22-177): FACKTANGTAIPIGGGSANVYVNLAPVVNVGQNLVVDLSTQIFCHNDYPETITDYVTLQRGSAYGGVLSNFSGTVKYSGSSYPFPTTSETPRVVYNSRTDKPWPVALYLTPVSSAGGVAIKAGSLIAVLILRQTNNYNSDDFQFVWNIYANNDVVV

Row | SMILES | Kd
1 | Cc1nnc(-c2ccc(-c3cccc([C@H]4O[C@H](CO)[C@@H](O)[C@H](O)[C@@H]4O)c3)cc2)s1 [Compound 176] | 21.1 ± 2.6 nM
2 | Cc1nc(-c2ccc(-c3cccc([C@H]4O[C@H](CO)[C@@H](O)[C@H](O)[C@@H]4O)c3)cc2)cs1 [Compound 177] | 12.1 ± 5.8 nM
3 | OC[C@H]1O[C@H](c2cccc(-c3ccc(-c4nnco4)cc3)c2)[C@@H](O)[C@@H](O)[C@@H]1O [Compound 178] | 17.9 ± 3.7 nM
4 | Cn1cnc2cc(-c3cccc([C@H]4O[C@H](CO)[C@@H](O)[C@H](O)[C@@H]4O)c3)ccc21 [Compound 179, (2R,3S,4R,5S,6R)-2-(hydroxymethyl)-6-(3-(1-methyl-1H-benzo[d]imidazol-5-yl)phenyl)tetrahydro-2H-pyran-3,4,5-triol] | 20.4 ± 0.8 nM
5 | CNC(=O)Cc1nnc(-c2ccc(-c3cccc([C@H]4O[C@H](CO)[C@@H](O)[C@H](O)[C@@H]4O)c3)cc2)o1 [Compound 181, N-methyl-2-(5-(3′-((2R,3S,4R,5S,6R)-3,4,5-trihydroxy-6-(hydroxymethyl)tetrahydro-2H-pyran-2-yl)-[1,1′-biphenyl]-4-yl)-1,3,4-oxadiazol-2-yl)acetamide] | 21.7 ± 4.2 nM
6 | COCCOCCNC(=O)Cc1nnc(-c2ccc(-c3cccc([C@H]4O[C@H](CO)[C@@H](O)[C@H](O)[C@@H]4O)c3)cc2)o1 [Compound 182, N-(2-(2-methoxyethoxy)ethyl)-2-(5-(3′-((2R,3S,4R,5S,6R)-3,4,5-trihydroxy-6-(hydroxymethyl)tetrahydro-2H-pyran-2-yl)-[1,1′-biphenyl]-4-yl)-1,3,4-oxadiazol-2-yl)acetamide] | 20.2 ± 4.7 nM
7 | Cc1nnc(-c2ccc(-c3cccc([C@H]4O[C@H](CO)[C@@H](O)[C@H](O)[C@@H]4O)c3)nc2)o1 [Compound 183, (2R,3S,4R,5S,6R)-2-(hydroxymethyl)-6-(3-(5-(5-methyl-1,3,4-oxadiazol-2-yl)pyridin-2-yl)phenyl)tetrahydro-2H-pyran-3,4,5-triol] | 24.8 ± 8.3 nM
8 | CC(=O)c1ccc(-c2cccc([C@H]3O[C@H](CO)[C@@H](O)[C@H](O)[C@@H]3O)c2)cc1 [Compound 184, 1-(3′-((2R,3S,4R,5S,6R)-3,4,5-trihydroxy-6-(hydroxymethyl)tetrahydro-2H-pyran-2-yl)-[1,1′-biphenyl]-4-yl)ethanone] | 18.2 ± 8.4 nM
9 | N#Cc1ccc(Oc2cccc([C@H]3O[C@H](CO)[C@@H](O)[C@H](O)[C@@H]3O)c2)cc1 [Compound 185, 4-[3-[(2R,3S,4R,5S,6R)-3,4,5-trihydroxy-6-(hydroxymethyl)tetrahydropyran-2-yl]phenoxy]benzonitrile] | 11.7 ± 7.5 nM
10 | CC(=O)c1ccc(Oc2cccc([C@H]3O[C@H](CO)[C@@H](O)[C@H](O)[C@@H]3O)c2)cc1 [Compound 186, 1-[4-[3-[(2R,3S,4R,5S,6R)-3,4,5-trihydroxy-6-(hydroxymethyl)tetrahydropyran-2-yl]phenoxy]phenyl]ethanone] | 12.3 ± 8.9 nM
11 | CNC(=O)c1ccc(Oc2cc([C@H]3O[C@H](CO)[C@@H](O)[C@H](O)[C@@H]3O)ccc2OC)cc1 [Compound 187, 4-[2-methoxy-5-[(2R,3S,4R,5S,6R)-3,4,5-trihydroxy-6-(hydroxymethyl)tetrahydropyran-2-yl]phenoxy]-N-methyl-benzamide] | 9.9 ± 1.9 nM
12 | CNC(=O)c1cccc(Oc2cc([C@H]3O[C@H](CO)[C@@H](O)[C@H](O)[C@@H]3O)ccc2OC)c1 [Compound 188, 3-[2-methoxy-5-[(2R,3S,4R,5S,6R)-3,4,5-trihydroxy-6-(hydroxymethyl)tetrahydropyran-2-yl]phenoxy]-N-methyl-benzamide] | 11.1 ± 1.1 nM
13 | COC(=O)c1ccc(Oc2cc([C@H]3O[C@H](CO)[C@@H](O)[C@H](O)[C@@H]3O)ccc2OC)cc1 [Compound 189, Methyl-4-[2-methoxy-5-[(2R,3S,4R,5S,6R)-3,4,5-trihydroxy-6-(hydroxymethyl)tetrahydropyran-2-yl]phenoxy]benzoate] | 8.1 ± 2.7 nM
14 | OC[C@H]1O[C@H](c2cccc(O)c2F)[C@@H](O)[C@@H](O)[C@@H]1O [Compound 190, (2R,3S,4R,5S,6R)-2-(2-fluoro-3-hydroxy-phenyl)-6-(hydroxymethyl)tetrahydropyran-3,4,5-triol] | 24.1 ± 15.3 nM
15 | OC[C@H]1O[C@H](c2cc(O)ccc2OC(F)(F)F)[C@@H](O)[C@@H](O)[C@@H]1O [Compound 191, (2R,3S,4R,5S,6R)-2-(hydroxymethyl)-6-[5-hydroxy-2-(trifluoromethoxy)phenyl]tetrahydropyran-3,4,5-triol] | 37.4 ± 17.2 nM
16 | OC[C@H]1O[C@H](c2cc(O)ccc2F)[C@@H](O)[C@@H](O)[C@@H]1O [Compound 192, (2R,3S,4R,5S,6R)-2-(2-fluoro-5-hydroxy-phenyl)-6-(hydroxymethyl)tetrahydropyran-3,4,5-triol] | 56.5 ± 9.1 nM
17 | OC[C@H]1O[C@H](c2ccc(F)c(O)c2)[C@@H](O)[C@@H](O)[C@@H]1O [Compound 193, (2R,3S,4R,5S,6R)-2-(4-fluoro-3-hydroxy-phenyl)-6-(hydroxymethyl)tetrahydropyran-3,4,5-triol] | 30.6 ± 1.1 nM
18 | Cc1cc(O)cc([C@H]2O[C@H](CO)[C@@H](O)[C@H](O)[C@@H]2O)c1 [Compound 194, (2R,3S,4R,5S,6R)-2-(hydroxymethyl)-6-(3-hydroxy-5-methyl-phenyl)tetrahydropyran-3,4,5-triol] | 31 ± 29.4 nM
19 | CNC(=O)c1ccc(Oc2ccc(OC(F)(F)F)c([C@H]3O[C@H](CO)[C@@H](O)[C@H](O)[C@@H]3O)c2)cc1 [Compound 195, N-methyl-4-[4-(trifluoromethoxy)-3-[(2R,3S,4R,5S,6R)-3,4,5-trihydroxy-6-(hydroxymethyl)tetrahydropyran-2-yl]phenoxy]benzamide] | 178 ± 60.9 nM

Row | SMILES | Kd
20 | CNC(=O)c1ccc(Oc2cc([C@H]3O[C@H](CO)[C@@H](O)[C@H](O)[C@@H]3O)ccc2F)cc1 [Compound 197, 4-[2-fluoro-5-[(2R,3S,4R,5S,6R)-3,4,5-trihydroxy-6-(hydroxymethyl)tetrahydropyran-2-yl]phenoxy]-N-methyl-benzamide] | 11.7 ± 2.8 nM
21 | CNC(=O)c1ccc(Oc2cccc([C@H]3O[C@H](CO)[C@@H](O)[C@H](O)[C@@H]3O)c2F)cc1 [Compound 198, 4-[2-fluoro-3-[(2R,3S,4R,5S,6R)-3,4,5-trihydroxy-6-(hydroxymethyl)tetrahydropyran-2-yl]phenoxy]-N-methyl-benzamide] | 10.8 ± 5.2 nM
22 | CNC(=O)c1ccc(Oc2cc(C)cc([C@H]3O[C@H](CO)[C@@H](O)[C@H](O)[C@@H]3O)c2)cc1 [Compound 199, N-methyl-4-[3-methyl-5-[(2R,3S,4R,5S,6R)-3,4,5-trihydroxy-6-(hydroxymethyl)tetrahydropyran-2-yl]phenoxy]benzamide] | 8.3 ± 2.2 nM
23 | CNC(=O)c1cccc(Oc2cccc([C@H]3O[C@H](CO)[C@@H](O)[C@H](O)[C@@H]3O)c2F)c1 [Compound 200, 3-[2-fluoro-3-[(2R,3S,4R,5S,6R)-3,4,5-trihydroxy-6-(hydroxymethyl)tetrahydropyran-2-yl]phenoxy]-N-methyl-benzamide] | 8.4 ± 0.8 nM
24 | CNC(=O)c1cccc(Oc2ccc(OC(F)(F)F)c([C@H]3O[C@H](CO)[C@@H](O)[C@H](O)[C@@H]3O)c2)c1 [Compound 201, N-methyl-3-[4-(trifluoromethoxy)-3-[(2R,3S,4R,5S,6R)-3,4,5-trihydroxy-6-(hydroxymethyl)tetrahydropyran-2-yl]phenoxy]benzamide] | 103 ± 1.8 nM
25 | CNC(=O)c1cccc(Oc2ccc(F)c([C@H]3O[C@H](CO)[C@@H](O)[C@H](O)[C@@H]3O)c2)c1 [Compound 202, 3-[4-fluoro-3-[(2R,3S,4R,5S,6R)-3,4,5-trihydroxy-6-(hydroxymethyl)tetrahydropyran-2-yl]phenoxy]-N-methyl-benzamide] | 19.2 ± 3.8 nM
26 | CNC(=O)c1cccc(Oc2cc([C@H]3O[C@H](CO)[C@@H](O)[C@H](O)[C@@H]3O)ccc2F)c1 [Compound 203, 3-[2-fluoro-5-[(2R,3S,4R,5S,6R)-3,4,5-trihydroxy-6-(hydroxymethyl)tetrahydropyran-2-yl]phenoxy]-N-methyl-benzamide] | 9.2 ± 1.2 nM
27 | CNC(=O)c1cccc(Oc2cc(C)cc([C@H]3O[C@H](CO)[C@@H](O)[C@H](O)[C@@H]3O)c2)c1 [Compound 204, N-methyl-3-[3-methyl-5-[(2R,3S,4R,5S,6R)-3,4,5-trihydroxy-6-(hydroxymethyl)tetrahydropyran-2-yl]phenoxy]benzamide] | 10.6 ± 0.9 nM
28 | OC[C@H]1O[C@H](c2ccc(Oc3ccccc3)cc2)[C@@H](O)[C@@H](O)[C@@H]1O [Compound 205, (2R,3S,4R,5S,6R)-2-(hydroxymethyl)-6-(4-phenoxyphenyl)tetrahydropyran-3,4,5-triol] | 38.7 ± 16.2 nM
29 | OC[C@H]1O[C@H](c2cccc(OCCF)c2)[C@@H](O)[C@@H](O)[C@@H]1O [Compound 206, (2R,3S,4R,5S,6R)-2-[3-(2-fluoroethoxy)phenyl]-6-(hydroxymethyl)tetrahydropyran-3,4,5-triol] | 28.4 ± 6.2 nM
30 | CCC(C)COc1cccc(C2O[C@H](CO)[C@@H](O)[C@H](O)[C@@H]2O)c1 (stereo partly shown) [Compound 207] | 9.4 ± 4.3 nM
31 | OC[C@H]1OC(c2cccc(OCCCCC(F)(F)F)c2)[C@@H](O)[C@@H](O)[C@@H]1O (stereo partly shown) [Compound 209] | 12.5 ± 5.3 nM
32 | OC[C@H]1OC(c2cccc(OCC3CCO3)c2)[C@@H](O)[C@@H](O)[C@@H]1O (stereo partly shown) [Compound 210] | 24.2 ± 1.3 nM
33 | COC(=O)c1ccc(COc2cccc(C3O[C@H](CO)[C@@H](O)[C@H](O)[C@@H]3O)c2)cc1 (stereo partly shown) [Compound 211] | 8 ± 2.4 nM
34 | CNC(=O)COc1cccc(C2O[C@H](CO)[C@@H](O)[C@H](O)[C@@H]2O)c1 (stereo partly shown) [Compound 212] | 18.9 ± 0.8 nM
35 | OC[C@H]1OC(c2cccc(OCc3ccc(-n4cncn4)cc3)c2)[C@@H](O)[C@@H](O)[C@@H]1O (stereo partly shown) [Compound 213] | 9.3 ± 0.5 nM
36 | CC1(COc2cccc(C3O[C@H](CO)[C@@H](O)[C@H](O)[C@@H]3O)c2)COC1 (stereo partly shown) [Compound 214] | 12 ± 7.9 nM
37 | OC[C@H]1OC(c2cccc(OCC3CCCCC3)c2)[C@@H](O)[C@@H](O)[C@@H]1O (stereo partly shown) [Compound 215] | 13.1 ± 3.9 nM
